The text below walks through data of publication PMC9029992, “New α-galactosidase-inhibiting aminohydroxycyclopentanes” (RSC Advances, 2021).

Assay [1] concerns the target α-glucosidase from S. cerevisiae (GH 13). Set-up: method as in PMID 2825997. The following applies: yeast; read-out: Ki α-Glc (yeast); cited from earlier work.
Assay [2] deals with α-galactosidase from E. coli (GH 36). The following applies: cited from earlier work.
Assay [3] addresses T1, α-galactosidase from green coffee beans (gcb, GH 27) (Coffea arabica, UniProt Q42656).
T1 construct: Green coffee bean α-galactosidase: 50 mM sodium phosphate buffer (pH 7); from tissue; host or cells: green coffee beans
The following applies: cited from earlier work.

In assay [4] the target is T2, Fabrazyme® (commercial recombinant lysosomal α-galactosidase, GH 27) (Homo sapiens, UniProt P06280).
T2 construct: purchased
T2 sequence (P06280 32-429): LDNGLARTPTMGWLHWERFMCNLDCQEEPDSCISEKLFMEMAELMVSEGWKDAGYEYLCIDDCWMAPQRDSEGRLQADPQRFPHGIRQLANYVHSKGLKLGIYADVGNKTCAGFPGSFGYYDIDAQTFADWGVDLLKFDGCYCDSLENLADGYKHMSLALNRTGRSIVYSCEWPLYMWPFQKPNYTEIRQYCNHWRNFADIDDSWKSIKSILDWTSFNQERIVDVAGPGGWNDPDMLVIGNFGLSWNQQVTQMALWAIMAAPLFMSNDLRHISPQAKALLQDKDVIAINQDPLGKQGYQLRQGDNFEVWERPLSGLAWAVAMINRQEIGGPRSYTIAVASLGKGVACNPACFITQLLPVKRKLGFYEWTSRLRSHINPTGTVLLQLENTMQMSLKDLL
The following applies: cited from earlier work.

The test system of assay [5] is bovine liver α-galactosidase. Details: method as in PMID 15858658. The following applies: cited from earlier work.
For assay [6], the target named is β-glucosidase (almonds). Set-up: method as in PMID 15064801. The following applies: reported in literature, read-out: inhibitory activity against β-glucosidase; cited from earlier work.
For assay [7], the target named is T3, β-glucosidase/β-galactosidase from Agrobacterium sp. (Abg, GH 1) (Agrobacterium sp., UniProt P12614).
T3 sequence (P12614 1-459): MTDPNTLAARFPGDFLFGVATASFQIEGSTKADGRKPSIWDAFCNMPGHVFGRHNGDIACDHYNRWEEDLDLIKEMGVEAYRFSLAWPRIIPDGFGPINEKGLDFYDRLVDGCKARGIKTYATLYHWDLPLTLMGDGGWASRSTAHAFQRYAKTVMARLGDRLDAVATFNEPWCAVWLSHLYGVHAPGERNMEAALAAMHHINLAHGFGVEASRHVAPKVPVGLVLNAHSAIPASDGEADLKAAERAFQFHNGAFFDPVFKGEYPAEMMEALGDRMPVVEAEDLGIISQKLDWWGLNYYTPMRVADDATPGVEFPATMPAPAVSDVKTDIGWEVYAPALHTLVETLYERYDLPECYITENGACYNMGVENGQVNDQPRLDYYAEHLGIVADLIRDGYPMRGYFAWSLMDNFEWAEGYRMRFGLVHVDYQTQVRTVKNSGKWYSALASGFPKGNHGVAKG
The assay is described as follows: Ki determination with Agrobacterium sp. β-glucosidase (Abg). Type of assay: biochemical. The following applies: pH 7, substrate Gal-β-pNP, room temperature; read-out: Ki Abg (β-Glc/β-Gal) (GH 1). The procedure: (§1) Kinetic studies were performed at room temperature in an appropriate buffer for each enzyme (specific conditions can be found below). All reactions were performed in half-area 96-well-plates (Corning) and monitored with a Synergy H1 plate reader (BioTek). In each experiment, the appropriate concentration of the enzyme was incubated with different concentrations of the inhibitors for 2–5 minutes before initiating the reaction by the addition of the glycoside substrate. The initial rate was then measured by monitoring the increase in, either absorbance at 405 nm (where the aglycone is either p-nitrophenol (pNP) or 2,4-dinitrophenol (dNP)) or fluorescence at 365/455 nm (where the aglycone is 4-methylumbelliferone (MU)) for up to five minutes. Ki determinations were performed using two different substrate concentrations. For each substrate concentration, a range of three to six inhibitor concentrations was used. Dixon plots (1/v vs. [I]) were constructed to validate the use of competitive inhibition model and to assess the fit of the data. The data were then fit to a competitive inhibition model using non-linear regression analysis with Grafit 7.0.0. (Erithacus Software).
Agrobacterium sp. β-glucosidase:[48,49]

The target of assay [8] is lac Z β-galactosidase from E. coli (GH 2) (Escherichia coli, UniProt P00722). The assay is described as follows: Ki determination with E. coli lac Z β-galactosidase. Type of assay: biochemical. The conditions noted are these: pH 7, substrate Gal-β-pNP, room temperature. As to the method: as §1
Chain of lac Z β-galactosidase from E. coli (GH 2) (P00722 2-1024 limits assumed): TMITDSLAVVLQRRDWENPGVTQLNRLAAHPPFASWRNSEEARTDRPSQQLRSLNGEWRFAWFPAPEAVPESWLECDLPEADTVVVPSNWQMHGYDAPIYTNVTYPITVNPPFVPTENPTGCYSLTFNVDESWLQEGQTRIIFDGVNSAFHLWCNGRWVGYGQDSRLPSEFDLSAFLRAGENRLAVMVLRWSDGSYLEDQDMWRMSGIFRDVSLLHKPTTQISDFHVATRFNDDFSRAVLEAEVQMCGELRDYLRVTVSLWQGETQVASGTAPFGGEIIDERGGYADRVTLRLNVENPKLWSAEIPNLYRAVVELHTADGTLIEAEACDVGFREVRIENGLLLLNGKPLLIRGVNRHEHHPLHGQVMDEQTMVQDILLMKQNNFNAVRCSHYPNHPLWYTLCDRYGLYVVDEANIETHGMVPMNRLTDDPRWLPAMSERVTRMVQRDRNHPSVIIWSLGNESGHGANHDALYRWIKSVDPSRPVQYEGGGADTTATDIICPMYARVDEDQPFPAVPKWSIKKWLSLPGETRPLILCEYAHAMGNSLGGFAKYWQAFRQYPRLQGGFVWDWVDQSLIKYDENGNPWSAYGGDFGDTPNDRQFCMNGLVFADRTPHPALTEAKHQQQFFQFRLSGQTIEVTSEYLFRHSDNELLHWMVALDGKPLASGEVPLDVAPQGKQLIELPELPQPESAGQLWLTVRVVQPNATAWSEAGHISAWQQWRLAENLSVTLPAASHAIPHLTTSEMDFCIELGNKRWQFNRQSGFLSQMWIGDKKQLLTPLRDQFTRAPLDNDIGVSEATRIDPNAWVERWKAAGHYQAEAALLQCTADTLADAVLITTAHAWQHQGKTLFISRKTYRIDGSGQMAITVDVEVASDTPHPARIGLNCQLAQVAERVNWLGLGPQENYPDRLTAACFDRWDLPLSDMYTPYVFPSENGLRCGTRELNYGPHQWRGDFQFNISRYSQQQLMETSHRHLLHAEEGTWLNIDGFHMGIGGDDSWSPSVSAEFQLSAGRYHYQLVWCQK
Assay [9] addresses T2, Fabrazyme® (commercial recombinant lysosomal α-galactosidase, GH 27). The assay is described as follows: Ki determination with Fabrazyme (acid α-galactosidase). Type of assay: biochemical. The following applies: pH 5.5, substrate Gal-α-dNP, room temperature. The procedure:
as §1

Assay [10] addresses T1, α-galactosidase from green coffee beans (gcb, GH 27). The assay is described as follows: Ki determination with green coffee bean α-galactosidase. Type of assay: biochemical. The following applies: pH 7, substrate Gal-α-MU, room temperature. As to the method: as §1
Assay [11] has as its target α-glucosidase from S. cerevisiae (GH 13). The assay is described as follows: Ki determination with S. cerevisiae α-glucosidase. Type of assay: biochemical. The following applies: pH 7, substrate Glc-α-pNP, room temperature; read-out: Ki S. cer. (α-Glc) (GH 13). As to the method:
as §1
S. cerevisiae α-glucosidase: 50 mM sodium phosphate buffer (pH 7). Substrate: Glc-α-pNP, Km = 0.75 mM.

Assay [12] addresses T4, recombinant human lysosomal β-glucocerebrosidase (GCase, GH 30) (Homo sapiens, UniProt P04062).
T4 sequence (P04062 40-536): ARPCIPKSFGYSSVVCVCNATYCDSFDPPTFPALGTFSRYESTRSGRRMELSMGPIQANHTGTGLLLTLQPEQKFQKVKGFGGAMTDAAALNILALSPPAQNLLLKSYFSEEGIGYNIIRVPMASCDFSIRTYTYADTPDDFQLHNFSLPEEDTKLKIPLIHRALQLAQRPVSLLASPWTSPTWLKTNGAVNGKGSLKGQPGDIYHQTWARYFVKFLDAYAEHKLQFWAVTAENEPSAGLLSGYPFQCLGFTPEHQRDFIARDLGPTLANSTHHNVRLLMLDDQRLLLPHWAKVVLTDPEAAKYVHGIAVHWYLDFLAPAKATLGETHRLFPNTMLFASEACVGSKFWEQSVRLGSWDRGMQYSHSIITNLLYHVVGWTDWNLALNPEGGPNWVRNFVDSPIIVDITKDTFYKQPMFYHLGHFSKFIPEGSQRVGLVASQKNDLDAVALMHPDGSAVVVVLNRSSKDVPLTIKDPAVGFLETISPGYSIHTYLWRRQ
The assay is described as follows: Ki determination with GCase (β-glucocerebrosidase). Type of assay: biochemical. The following applies: pH 7, substrate Glc-β-dNP, room temperature. The procedure: as §1

Setting [13] is: read-out: Ki gcb α-galactosidase.

The structures appear in SMILES notation. Read-outs that look alike come from different tables or passages of the source.

T1 sequence (Q42656 16-378): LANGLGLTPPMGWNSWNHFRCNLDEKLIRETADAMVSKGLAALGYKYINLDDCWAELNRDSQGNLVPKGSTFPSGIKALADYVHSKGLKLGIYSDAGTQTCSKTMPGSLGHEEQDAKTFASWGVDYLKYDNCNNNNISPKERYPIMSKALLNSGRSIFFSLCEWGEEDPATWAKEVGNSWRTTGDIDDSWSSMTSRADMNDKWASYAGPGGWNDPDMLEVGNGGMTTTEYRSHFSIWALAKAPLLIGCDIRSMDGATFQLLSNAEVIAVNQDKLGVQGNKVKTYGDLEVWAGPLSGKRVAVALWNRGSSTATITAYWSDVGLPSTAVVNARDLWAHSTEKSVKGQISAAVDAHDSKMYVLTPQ

In the case of `OC[C@H]1NC[C@H](O)[C@@H](O)[C@H]1O` [compound 1, 1,5-dideoxy-1,5-imino-D-galactitol], the Ki in [1] is more than 1000 µM. For the same molecule, the IC50 – broadly, the concentration at which inhibition is half-maximal – in assay [2] (read-out: IC50 α-galactosidase from E. coli) was 0.24 µM.

For `OC[C@@H]1C[C@@H](O)[C@@H](O)[C@@H](CO)N1` [compound 2], the IC50 in [3] (read-out: IC50 gcb galactosidase) is 0.06 µM; in assay [2] (read-out: IC50 E. coli enzyme) it was 32 µM.

On to `OC[C@H]1CNC[C@@H](O)[C@H]1O` [compound 3, 4-epi-isofagomine], for which the 50% inhibitory concentration (IC50) in assay [3] (read-out: IC50 gcb) was 200 µM.

With `CCCCCCN1C[C@@H](O)[C@@H](O)[C@@](F)(CO)C1` [compound 4], the values for the Ki in [4] (read-out: Ki Fabrazyme®) and in assay [3] (setting [13]) were 116 µM and 0.5 µM, respectively.

On to `N[C@H]1C[C@H](CO)[C@H](O)[C@H](O)[C@H]1O` [compound 5, 4-epi-validamine], for which the IC50 was 500 µM in assay [3] (read-out: IC50 gcb) and 890 µM in assay [2] (read-out: IC50 E. coli).

For `N[C@@H]1[C@H](O)[C@@H](O)[C@@H](O)[C@]2(CO)C[C@H]12` [compound 6], the Ki in [3] (read-out: Ki gcb) is 0.54 µM. Also, the 50% inhibitory concentration (IC50) in [2] (read-out: IC50 E. coli) was 80 µM.

Regarding `OC[C@H]1NC[C@@H](O)[C@H]1O` [compound 7, 1,4-dideoxy-1,4-imino-D-lyxitol], the Ki in assay [3] (setting [13]) was 0.13 µM.

Turning to `O=S1(=O)N[C@@H]2[C@H](O)[C@@H](O)[C@@H](O)[C@@H](CO)[C@@H]2O1` [compound 11], in assay [4] (as printed in Fig. 1), the IC50 was 110 µM. Further, in assay [4] (read-out: Ki Fabrazyme® (α-Gal) (GH 27)), the Ki was 110 µM.

For `OC[C@@H]1[C@H](O)[C@H](O)[C@@H](O)[C@H]1NCc1ccccc1` [compound 12], the Ki was 0.43 µM in assay [3] (setting [13]) and 0.51 µM in assay [6]. Moreover, in [5], the “inhibitory activity against bovine liver α-galactosidase” value is on record as “does not show any inhibitory activity”.

Regarding `N[C@@H]1[C@H](O)[C@@H](O)[C@@H](O)[C@H]1CO` [compound 22, (1S,2S,3S,4S,5R)-4-Amino-5-(hydroxymethyl)cyclopentane-1,2,3-triol], the Ki in assay [7] worked out at 0.014 ± 0.003 µM; in [8], 200 ± 90 µM; in assay [9], 9.5 ± 1.9 µM; in assay [10] it was 6.7 ± 0.9 µM; in assay [11], 160 ± 60 µM; in assay [12], 18 ± 3 µM. The Ki in assay [3] (read-out: Ki gcb (α-Gal) (GH 27) (converted)) was 12 µM.

Take `CCCCCCN[C@@H]1[C@H](O)[C@@H](O)[C@@H](O)[C@H]1CO` [compound 23, (1S,2S,3S,4S,5R)-4-(n-Hexylamino)-5-(hydroxymethyl)cyclopentane-1,2,3-triol]: the Ki in assay [7] was found to be 0.013 ± 0.003 µM; in assay [8] it was 120 ± 20 µM; in [9] it was 4.9 ± 0.9 µM; in [10], 0.19 ± 0.05 µM; in assay [11], 130 ± 40 µM; in assay [12] it was 40 ± 8 µM.

In the case of `CCCCCCCCCN[C@@H]1[C@H](O)[C@@H](O)[C@@H](O)[C@H]1CO` [compound 24, (1S,2S,3S,4S,5R)-4-(n-Nonylamino)-5-(hydroxymethyl)cyclopentane-1,2,3-triol], the Ki in [7] was determined as 0.0037 ± 0.0016 µM; in assay [8], 23 ± 7 µM; in [9], 0.52 ± 0.21 µM; in assay [10] it was 0.25 ± 0.05 µM; in assay [11], 73 ± 17 µM; in [12], 1.2 ± 0.5 µM.

With `CN(C)c1cccc2c(S(=O)(=O)NCCCCCCN[C@@H]3[C@H](O)[C@@H](O)[C@@H](O)[C@H]3CO)cccc12` [compound 27, 5-(Dimethylamino)-N-(6-(((1S,2S,3S,4S,5R)-2,3,4-trihydroxy-5-(hydroxymethyl)cyclopentyl)amino)hexyl)naphthalene-1-sulfonamide], the Ki in [7] worked out at 0.005 ± 0.001 µM; in [8], 7.8 ± 4.6 µM; in [9] it was 4.4 ± 1.1 µM; in [10] it was 0.14 ± 0.04 µM; in [11], 16 ± 4 µM; in assay [12] it was 0.63 ± 0.09 µM.

Turning to `Cc1c(OCC(F)(F)F)ccnc1C[S+]([O-])c1nc2ccccc2[nH]1` (stereo not shown) [lansoprazole], the IC50 in assay [3] (read-out: IC50 gcb α-galactosidase) was 6.4 µM.
